Data as given in ChEMBL document CHEMBL1201862, “PubChem BioAssay data set” (2004).
Blank lines part the entries; values can stand above or below the compound they belong to. Activity calls are given as the source filed them.

Assays:
[1] = test system: HEK293; assay: cells; format: functional, cell-based; conditions: Homo sapiens
[2] = target: Nuclear receptor subfamily 0 group B member 1 (Homo sapiens, UniProt P51843); assay: Luminescence-based cell-based high throughput dose response assay for inhibitors of the orphan nuclear receptor subfamily 0, group B, member 1 (DAX1; NR0B1). [Related pubchem assays (depositor defined):AID504766, AID504790]; format: functional
Sequence of Nuclear receptor subfamily 0 group B member 1 (P51843 whole entry): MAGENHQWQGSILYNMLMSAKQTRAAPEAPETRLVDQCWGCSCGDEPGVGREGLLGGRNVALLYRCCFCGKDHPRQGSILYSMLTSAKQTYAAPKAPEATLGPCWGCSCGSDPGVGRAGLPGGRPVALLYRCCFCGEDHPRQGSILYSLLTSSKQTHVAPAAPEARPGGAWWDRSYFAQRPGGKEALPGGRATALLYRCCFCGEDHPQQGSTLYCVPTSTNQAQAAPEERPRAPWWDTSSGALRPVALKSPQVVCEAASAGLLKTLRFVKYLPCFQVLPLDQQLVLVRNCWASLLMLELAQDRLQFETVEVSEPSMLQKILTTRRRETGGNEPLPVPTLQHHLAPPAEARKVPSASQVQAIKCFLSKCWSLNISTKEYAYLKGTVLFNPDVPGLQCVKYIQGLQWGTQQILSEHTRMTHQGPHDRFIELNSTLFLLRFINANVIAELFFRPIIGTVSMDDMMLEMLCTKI

[3] = test system: HEK293; assay: inhibition of NOD1-driven NF-kB reporter – cell-based, luminescence, uHTS, primary screen (AID 1578); format: functional; conditions: Homo sapiens
[4] = test system: HEK293; assay: cells; format: functional, cell-based; conditions: Homo sapiens; remark: listed apart in the source
[5] = test system: HEK293; assay: cells; format: functional, cell-based; conditions: Homo sapiens; remark: listed apart in the source
[6] = target: Nucleotide-binding oligomerization domain-containing protein 2 (Homo sapiens, UniProt Q9HC29); assay: inhibition of NOD2-driven NF-kB reporter – cell-based, luminescence, uHTS, HEK293 (AID 1566); format: functional
Sequence of Nucleotide-binding oligomerization domain-containing protein 2 (Q9HC29 whole entry, the tested form may be a part): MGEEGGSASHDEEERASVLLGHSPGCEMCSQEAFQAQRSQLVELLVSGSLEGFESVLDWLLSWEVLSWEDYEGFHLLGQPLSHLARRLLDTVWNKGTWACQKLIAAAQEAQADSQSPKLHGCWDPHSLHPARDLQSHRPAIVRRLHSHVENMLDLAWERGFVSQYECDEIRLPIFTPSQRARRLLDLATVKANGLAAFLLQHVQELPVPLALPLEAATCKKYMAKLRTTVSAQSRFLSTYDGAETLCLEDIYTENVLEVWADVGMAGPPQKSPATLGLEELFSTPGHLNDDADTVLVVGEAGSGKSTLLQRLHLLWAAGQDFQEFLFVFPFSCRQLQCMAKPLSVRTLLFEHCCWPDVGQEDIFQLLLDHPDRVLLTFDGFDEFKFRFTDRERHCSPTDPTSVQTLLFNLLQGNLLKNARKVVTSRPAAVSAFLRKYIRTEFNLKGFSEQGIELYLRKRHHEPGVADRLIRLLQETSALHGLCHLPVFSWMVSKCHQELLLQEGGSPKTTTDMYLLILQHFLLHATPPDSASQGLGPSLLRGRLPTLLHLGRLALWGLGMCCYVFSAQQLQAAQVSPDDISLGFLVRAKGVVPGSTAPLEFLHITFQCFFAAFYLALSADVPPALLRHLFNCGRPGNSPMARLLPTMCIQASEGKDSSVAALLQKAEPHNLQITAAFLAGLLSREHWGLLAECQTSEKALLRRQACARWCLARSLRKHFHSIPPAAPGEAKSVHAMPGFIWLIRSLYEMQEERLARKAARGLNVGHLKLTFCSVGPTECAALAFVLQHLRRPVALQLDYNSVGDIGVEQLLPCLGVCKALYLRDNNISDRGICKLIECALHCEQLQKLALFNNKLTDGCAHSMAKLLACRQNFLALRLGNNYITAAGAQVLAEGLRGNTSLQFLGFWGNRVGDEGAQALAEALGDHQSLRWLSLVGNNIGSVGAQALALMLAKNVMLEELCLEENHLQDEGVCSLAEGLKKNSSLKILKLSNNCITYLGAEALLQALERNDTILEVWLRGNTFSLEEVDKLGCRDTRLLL

[7] = test system: HEK293; assay: NOD2 signaling inhibitors in MDP-stimulated cells, cell-based, uHTS, luminescence (AID 2001); format: functional; conditions: Homo sapiens
[8] = Trypanosoma cruzi growth suppression in host cells – NIH3T3 host cells, beta-gal luminescence, confirmation (AID 2044); format: functional, cell-based;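 further: intracellular parasites grown in NIH/3T3 mouse fibroblasts as host cells; luminescent beta-galactosidase reporter signal from transgenic T. cruzi replicating inside host cells; inhibitors lower the luminescence signal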
[9] = test system: HEK293; assay: cells; format: functional, cell-based; conditions: Homo sapiens; remark: listed apart in the source
[10] = NIH3T3 cell viability loss – ATP luminescence, mouse fibroblasts, counter-screen, dose response (AID 2010); format: functional, cell-based;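 further: cells exposed to compound for about 90 hours before reading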
[11] = target: Beta-galactosidase (Escherichia coli, UniProt Q8VNN2); assay: detection-enzyme interference by beta-gal modulators – biochemical, E. coli enzyme, set 3, artefact control for CCR6 antagonist project, dose response (AID 504712); format: functional
Sequence of Beta-galactosidase (Q8VNN2 whole entry): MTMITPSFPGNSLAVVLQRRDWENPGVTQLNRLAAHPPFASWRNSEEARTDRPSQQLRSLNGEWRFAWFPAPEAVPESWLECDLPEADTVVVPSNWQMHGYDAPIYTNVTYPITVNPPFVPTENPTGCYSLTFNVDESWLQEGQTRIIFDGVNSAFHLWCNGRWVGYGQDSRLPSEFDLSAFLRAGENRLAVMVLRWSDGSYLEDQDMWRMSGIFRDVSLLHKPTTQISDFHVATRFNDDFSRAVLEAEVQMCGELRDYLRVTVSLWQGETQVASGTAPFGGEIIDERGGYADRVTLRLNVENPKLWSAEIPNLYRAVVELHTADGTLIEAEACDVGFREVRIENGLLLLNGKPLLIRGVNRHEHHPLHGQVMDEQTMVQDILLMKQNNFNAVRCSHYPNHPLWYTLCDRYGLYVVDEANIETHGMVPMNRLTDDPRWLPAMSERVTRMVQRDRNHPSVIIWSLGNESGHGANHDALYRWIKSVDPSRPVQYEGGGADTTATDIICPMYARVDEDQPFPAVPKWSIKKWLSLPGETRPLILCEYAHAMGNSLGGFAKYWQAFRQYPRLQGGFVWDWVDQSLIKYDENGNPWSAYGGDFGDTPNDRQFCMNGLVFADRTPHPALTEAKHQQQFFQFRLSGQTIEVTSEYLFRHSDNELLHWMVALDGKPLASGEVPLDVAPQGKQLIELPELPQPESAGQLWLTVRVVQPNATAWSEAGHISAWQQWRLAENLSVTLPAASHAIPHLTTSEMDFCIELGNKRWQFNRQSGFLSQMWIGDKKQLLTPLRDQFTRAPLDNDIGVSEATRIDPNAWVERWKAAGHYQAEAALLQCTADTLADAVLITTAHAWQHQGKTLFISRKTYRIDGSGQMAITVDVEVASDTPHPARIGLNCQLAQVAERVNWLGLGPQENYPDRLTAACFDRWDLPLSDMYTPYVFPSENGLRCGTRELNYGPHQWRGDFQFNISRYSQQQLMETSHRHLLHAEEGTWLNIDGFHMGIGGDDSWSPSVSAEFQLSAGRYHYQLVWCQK

[12] = target: FAD-linked sulfhydryl oxidase ALR (Homo sapiens, UniProt P55789); assay: ALR-catalysed DTT oxidation blockers – biochemical, H2O2 detection, luminescence, cherry-pick, dose response (AID 493248)
Sequence of FAD-linked sulfhydryl oxidase ALR (P55789 whole entry): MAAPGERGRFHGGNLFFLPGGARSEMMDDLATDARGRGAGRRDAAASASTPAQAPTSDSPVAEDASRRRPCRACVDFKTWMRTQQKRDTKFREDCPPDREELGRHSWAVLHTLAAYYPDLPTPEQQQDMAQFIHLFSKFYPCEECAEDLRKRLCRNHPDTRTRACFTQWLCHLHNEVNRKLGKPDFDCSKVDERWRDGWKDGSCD

[13] = target: Heat shock protein HSP 90-alpha (Homo sapiens, UniProt P07900); format: functional, organism-based
[14] = target: Apelin receptor (Homo sapiens, UniProt P35414); assay: apelin receptor antagonists, arrestin read-out – cell-based, luminescent, enzyme-fragment complementation, selectivity assay for CCR6 antagonist project, SAR follow-up (AID 588359); format: functional
Sequence of Apelin receptor (P35414 whole entry, the tested form may be a part): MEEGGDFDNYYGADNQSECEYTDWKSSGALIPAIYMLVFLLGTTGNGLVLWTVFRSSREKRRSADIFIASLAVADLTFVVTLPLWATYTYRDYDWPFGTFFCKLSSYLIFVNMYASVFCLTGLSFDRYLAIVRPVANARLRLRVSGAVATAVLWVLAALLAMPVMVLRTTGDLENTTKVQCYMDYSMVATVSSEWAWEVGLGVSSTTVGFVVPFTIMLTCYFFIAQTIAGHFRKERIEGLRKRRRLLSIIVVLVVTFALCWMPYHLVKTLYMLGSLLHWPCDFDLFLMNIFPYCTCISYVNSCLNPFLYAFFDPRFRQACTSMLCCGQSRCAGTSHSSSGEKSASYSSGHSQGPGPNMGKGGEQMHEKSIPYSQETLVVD

[15] = test system: INS1; assay: INS-1E survival protection against cytokine death – cell-based, luminescence, retest, dose response (AID 449756); format: functional; conditions: Rattus norvegicus;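 further: cell death triggered by IL-1 beta plus TNF-alpha plus IFN-gamma mixture; protective hits raise ATP signal compared with cytokine alone wells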
[16] = reduction of Shn3 3'UTR-driven luciferase in osteoblasts – cell-based, Clone20 osteoblasts, firefly luciferase, cherry-picked, dose response (AID 624132); format: functional;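 further: firefly luciferase luminescence from reporter carrying the Shn3 3'UTR in osteoblasts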
[17] = loss of viability in HepG2 cells – cell-based, CellTiter-Glo, cherry-picked, cytotoxicity control for Shn3 inhibitor project, dose response (AID 624134); format: functional
[18] = non-specific 3'UTR reporter inhibition in Clone20-Shn3RL – cell-based, Renilla luciferase, cherry-picked, counter-screen for Shn3 inhibitor project, dose response (AID 624133); format: functional
[19] = Fluorescence-based cell-based high throughput dose response assay for inhibitors of the interaction of nucleotide-binding oligomerization domain containing 2 (NOD2) and the receptor-interacting serine-threonine kinase 2 (RIPK2).; format: functional; conditions: Homo sapiens
[20] = activation of miR-122 Renilla sensor silencing – cell-based, Huh7 psiCHECK-miR122, Renilla luciferase, cherry-picked, dose response (AID 651956); format: functional;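 further: huh7 hepatoma cells stably carrying a psiCHECK-2 miR-122 sensor plasmid; renilla luciferase signal reporting endogenous miR-122 activity after 48 h compound exposure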
[21] = general mammalian cell viability loss – inhibitor set, cherry-pick, set 2, cytotoxicity control for miR-122 modulator project, dose response (AID 720697); format: functional, cell-based
[22] = general mammalian cell viability loss – activator set, cherry-pick, cytotoxicity control for miR-122 modulator project, dose response (AID 720690); format: functional, cell-based;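 further: HEK293T human cells scored for general mammalian cytotoxicity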
[23] = target: T1, Heat shock factor protein 1 (Mus musculus, UniProt P38532); assay: decrease of HSF1-responsive luciferase luminescence – cell-based, NIH3T3, dose retest, confirmation (AID 2382); format: functional;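 further: NIH3T3 fibroblasts with HSF1-driven luciferase reporter stressed by proteasome inhibitor MG132; luminescence from HSF1-driven luciferase expression after 8 hours of MG132 stress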
T1 sequence (P38532 whole entry): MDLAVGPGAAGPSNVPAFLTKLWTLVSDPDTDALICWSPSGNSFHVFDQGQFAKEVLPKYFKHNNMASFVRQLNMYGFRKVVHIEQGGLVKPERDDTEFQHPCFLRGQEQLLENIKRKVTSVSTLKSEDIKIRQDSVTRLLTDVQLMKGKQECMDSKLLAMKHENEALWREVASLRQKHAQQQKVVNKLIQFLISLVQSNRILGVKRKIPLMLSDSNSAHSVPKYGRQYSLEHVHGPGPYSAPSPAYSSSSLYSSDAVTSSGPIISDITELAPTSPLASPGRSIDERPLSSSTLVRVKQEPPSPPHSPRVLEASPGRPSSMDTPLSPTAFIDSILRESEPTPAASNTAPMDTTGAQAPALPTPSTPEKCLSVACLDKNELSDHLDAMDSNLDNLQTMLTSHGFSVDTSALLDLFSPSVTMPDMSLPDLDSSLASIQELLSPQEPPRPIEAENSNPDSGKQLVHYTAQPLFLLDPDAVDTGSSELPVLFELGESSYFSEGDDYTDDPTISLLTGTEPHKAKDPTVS

[24] = target: Delta-type opioid receptor (Homo sapiens, UniProt P41143); assay: Counterscreen for agonists of heterodimerization of the mu 1 (OPRM1) and delta 1 (OPRD1) opioid receptors: Luminescence-based cell-based high throughput dose response assay to identify agonists of OPRD1 homodimerization. [Related pubchem assays (depositor defined):AID504326, AID504355, AID504692, AID504904, AID504905]; format: functional
Sequence of Delta-type opioid receptor (P41143 whole entry): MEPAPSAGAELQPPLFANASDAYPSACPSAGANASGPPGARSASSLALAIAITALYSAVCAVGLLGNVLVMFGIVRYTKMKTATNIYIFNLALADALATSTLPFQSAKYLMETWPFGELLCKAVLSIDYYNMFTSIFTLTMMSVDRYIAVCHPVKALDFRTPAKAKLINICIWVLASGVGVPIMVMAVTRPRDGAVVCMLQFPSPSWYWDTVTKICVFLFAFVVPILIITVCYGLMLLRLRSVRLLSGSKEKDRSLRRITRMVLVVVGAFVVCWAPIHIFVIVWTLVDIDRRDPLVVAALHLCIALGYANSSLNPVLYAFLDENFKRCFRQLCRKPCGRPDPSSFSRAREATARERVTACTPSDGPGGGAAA

[25] = target: Mu-type opioid receptor (Homo sapiens, UniProt P35372); assay: Counterscreen for agonists of heterodimerization of the mu 1 (OPRM1) and delta 1 (OPRD1) opioid receptors: Luminescence-based cell-based high throughput dose response assay to identify agonists of OPRM1 homodimerization.; format: functional;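 further: U2OS cells expressing OPRM1 and beta-arrestin as split beta-galactosidase partners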
Sequence of Mu-type opioid receptor (P35372 whole entry): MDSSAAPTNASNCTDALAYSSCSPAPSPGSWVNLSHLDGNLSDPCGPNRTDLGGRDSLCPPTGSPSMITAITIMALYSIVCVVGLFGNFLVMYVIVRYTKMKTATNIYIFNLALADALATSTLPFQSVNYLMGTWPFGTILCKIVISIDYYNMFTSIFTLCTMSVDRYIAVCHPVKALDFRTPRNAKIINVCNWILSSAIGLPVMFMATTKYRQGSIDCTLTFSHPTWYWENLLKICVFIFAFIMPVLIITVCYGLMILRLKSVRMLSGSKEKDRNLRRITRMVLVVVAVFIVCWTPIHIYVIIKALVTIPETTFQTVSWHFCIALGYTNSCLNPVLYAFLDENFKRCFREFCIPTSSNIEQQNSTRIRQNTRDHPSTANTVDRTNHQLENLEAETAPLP

[26] = target: 5-hydroxytryptamine receptor 5A (Homo sapiens, UniProt P47898); assay: Counterscreen for agonists of OPRM1-OPRD1 heterodimerization: luminescence-based cell-based high throughput dose response assay to identify agonists of 5-hydroxytryptamine (serotonin) 5A receptor (HTR5A). [Related pubchem assays (depositor defined):AID504326, AID504355, AID504692, AID504904, AID504905]; format: functional
Sequence of 5-hydroxytryptamine receptor 5A (P47898 whole entry): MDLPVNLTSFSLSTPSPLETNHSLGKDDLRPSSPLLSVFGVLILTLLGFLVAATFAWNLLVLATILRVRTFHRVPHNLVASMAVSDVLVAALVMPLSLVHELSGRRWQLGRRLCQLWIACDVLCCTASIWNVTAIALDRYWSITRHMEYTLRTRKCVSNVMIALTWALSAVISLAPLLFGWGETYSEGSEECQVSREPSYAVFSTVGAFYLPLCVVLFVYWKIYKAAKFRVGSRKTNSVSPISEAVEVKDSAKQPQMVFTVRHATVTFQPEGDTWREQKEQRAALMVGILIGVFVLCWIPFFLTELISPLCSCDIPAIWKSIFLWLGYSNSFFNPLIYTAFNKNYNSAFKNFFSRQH

Compound: O=C(COc1ccc(Cl)cc1Cl)c1ccc[nH]1
IC50 [1]: > 67.6 µM (inactive) | IC50 [2]: > 67.6 µM (inactive)

Compound: Cc1ccc(S(=O)(=O)c2ccc([N+](=O)[O-])cn2)cc1
EC50 [3]: 6.69 µM (active) | IC50 [4]: 5.37 µM (active) | IC50 [5]: > 20 µM (inactive) | EC50 [6]: > 20 µM (inactive) | IC50 [7]: 6.5 µM (active) | EC50 [8]: 2.38 µM (active) | IC50 [9]: > 20 µM (inactive) | EC50 [10]: 3.42 µM (active) | IC50 [11]: > 66.6 µM (inactive) | AC50 [12]: 15.3 µM (active) | AC50 [13]: 4.18 µM (active) | IC50 [14]: 23.4 µM (inactive) | AC50 [15]: > 260 µM (inactive) | AC50 [16]: 3.85 µM (active) | AC50 [17]: 12.1 µM (active) | AC50 [18]: 3.26 µM (active) | IC50 [19]: 6.33 µM (active) | AC50 [20]: 10.6 µM (active) | AC50 [21]: 7.35 µM (active) | AC50 [22]: 4.36 µM (active)

EC50 [23]: 13.6 µM (active) | EC50 [24]: > 92.5 µM (inactive) | EC50 [25]: > 92.5 µM (inactive) | EC50 [26]: > 92.5 µM (inactive)
Compound: COc1ccc(/C=C/C(=O)NC(=S)NCCc2ccc(OC)c(OC)c2)cc1
